How the values were obtained:
Assay type in all cases: cell-based
[1] = system: human ADRA2A receptor; assay: GRAB-NE2.1 in cultured rat cortical neurons, drug perfusion; conditions: GRAB-NE2.1 in neurons
Protocol: Newborn Sprague-Dawley rats were used for the primary culture of rat neurons. After the skin was washed with alcohol, the head of newborn rat was dissected with surgical instruments, and the vascular membrane on the surface of the cortex was carefully removed after removing the brain. The cortical tissue was cut into pieces and placed in a 0.25% trypsin solution, and digested for 10 minutes in an incubator at 37° C. The digestion was terminated with a DMEM medium containing 5% FBS, and the cells were further isolated by slowly pipetting up and down ten times with a pipette. After standing for 5 minutes, the pellet containing the tissue debris was discarded and the upper layer solution was collected and centrifuged at 1000 rpm for 5 minutes in a centrifuge. Thereafter, the supernatant was discarded and the neurons were resuspended with the Neurobasal+B27 medium used for culturing the neurons. The density was calculated using a cell counting chamber. After that, the cells were diluted at a density of 0.5-1×10^6 cells/ml and plated on the slides coated with poly-lysine (Sigma). Primary neurons were cultured in the Neurobasal+B27 medium, and a half of the medium was exchanged every two days. […]
The optical signal changes of neurons expressing neurotransmitter sensors were detected by perfusion with a neurotransmitter solution.

[2] = system: human ADRA2A receptor; assay: GRAB-NE2.1 in primary cultured rat cardiomyocytes, drug perfusion; conditions: GRAB-NE2.1 in cardiomyocytes, 1 μM Yohimbine
From the text: The GRAB-NE2.1 sensor was transfected into primary cultured rat cardiomyocytes by liposomes, and the optical signal changes for the ligand binding and affinity for ligand were detected by drug perfusion.

[3] = system: human ADRA2A receptor
Protocol: The perfusion system was set on a microscope, and including a solution-introduced system, an imaging cell, and a suction pump. During the perfusion process, the imaging cell was placed above the objective lens of the inverted microscope, and the slide with cultured cells was placed in the cell. The perfusion experiments of different drugs were performed by controlling the switches of the different pipes of the solution-introduced system. The perfusion speed was set to one drop or so per second. In order to ensure the stability of the focal plane, the liquid level was kept constant at all times, and the flow rate of each solution was adjusted accordingly. The aspiration speed was adjusted to maintain the liquid level in the cell over the slide.
The region of interest (ROI) and background area were selected manually prior to the perfusion experiment. The exposure time was set to less than 50 ms and the acquisition frequency was 5 seconds. The solution used for the perfusion was a physiological solution 4k (pH 7.3-7.4), which was used to formulate the drug to the desired concentration. The running time of the program was set to no more than 5 min. After using 4k to balance and stabilize the cells for about 60-90 s, the cells were perfused with drug for 60 s, and then washed with 4k. The excitation light for green fluorescent protein was 488 nm, and for red fluorescent protein was 568 nm. The laser intensity was adjusted according to the working state of the laser and the expression level of the cells.
After the end of the program, the time-fluorescence intensity data sheet was exported. The background was subtracted from the ROI to get the corresponding fluorescence value Ft, and the average value of the fluorescence value before adding the drug was used as the starting fluorescence F0 to calculate
The detection of the response of the GRAB sensor to the ligand (ΔF/F0) was performed by drug perfusion. The cells were maintained in a standard physiological solution, and the formula thereof is: […]
Fluorescence imaging data was processed using ImageJ software. For the fluorescence performance of GRAB sensors in HEK293T cells and neurons, the entire cell body was selected as the data processing region. The change in the fluorescence signal was usually indicated by its relative intensity change. The background area without the expression of the sensor was first subtracted from the fluorescence signal, so as to obtain the true expression intensity of the fluorescent protein.

[4] = system: human ADRA2A receptor; assay: Response kinetics of GRAB-NE2.2 by photolysis of NPEC-caged-NE; conditions: GRAB-NE2.2, 10 μM Yohimbine
Protocol: 100 μM NPEC-NE was prepared in DMSO. The photo-uncaging experiment was performed on a Nikon laser scanning confocal microscope. The light stimulation was 80% of the 405 nm laser for 76 ms, and the stimulation area was 2×2 pixel rectangle (1 pixel=0.62 μm).
By caging neurotransmitters, neurotransmitters can be quickly activated and released in a certain area, and the signal of the sensor was fast scanned by a microscope to obtain the time constant for the change in fluorescence intensity after the sensor binds to the ligand. The experiment was performed in HEK293T cells using the neurotransmitter NPEC caged NE (i.e., NPEC-NE) (FIG. 29a), 405 nm laser for activating NPEC-caged NE, and GRAB-NE2.2.

effect of blocker on ligand-induced optical signal changes [1]: can inhibit
effect of blocker on NE reaction [2]: can inhibit
effect of blocker on NE concentration-dependent changes ([3]; GRAB-NE2.0, 10 nM to 100 μM NE, 1 μM Yohimbine): completely inhibited
effect of blocker on ligand-induced NE sensor signal changes ([3]; GRAB-NE2.0, Yohimbine 2 μM): can inhibit
effect of blocker on NE-induced fluorescence signal ([3]; GRAB-NE2.1, Yohimbine 2 μM): can inhibit
effect of blocker on photolysis-induced fluorescence change [4]: inhibited
Structure (SMILES): COC(=O)[C@@H]1[C@H]2C[C@H]3c4[nH]c5ccccc5c4CCN3C[C@@H]2CC[C@@H]1O [Yohimbine]

From patent US20200400567A1, “FUSION POLYPEPTIDE” (PEKING UNIVERSITY, priority 2017, published 2020)
